pEC50, pIC50: −log10 of the molar value. Where two headings read alike, the source gives them in different places.
Legend:
CYP2D6 = CYP2D6 (Homo sapiens, UniProt P10635); assay: CYP2D6 inhibition in liver cells; type: in vitro ADME; conditions: read-out: CYP2D6 IC50; inhibition of cytochrome P450 enzymes in liver cells
STHdhQ111 striatal cells = assay: XTT assay of metabolic activity in STHdhQ111 striatal cells; type: cell-based, mouse; conditions: 24 and 48 hrs
[1] = system: Vdr and Dhrs4 expression in STHdhQ111 cells; assay: Expression of Vdr and Dhrs4 in STHdhQ111 striatal cells; type: cell-based, mouse
[2] = system: class I and class II HDAC enzymes; assay: HDAC subtype selectivity profile from IC50 values; conditions: in words
Hct116 cells = assay: Cell proliferation inhibition assay, Hct116; type: cell-based, human; conditions: for pIC50: read-out: Proliferation inhibition Hct116, IC50, 72h
CYP3A4 = CYP3A4 (Homo sapiens, UniProt P08684); assay: CYP3A4 inhibition in liver cells; type: in vitro ADME; conditions: read-out: CYP3A4 IC50; inhibition of cytochrome P450 enzymes in liver cells
HDAC4 = HDAC4 (Homo sapiens, UniProt P56524); assay: HDAC4 inhibition; conditions: read-out: IC50 for Class II HDAC enzymes: HDAC4; Table 1
HDAC8 = target: T1, HDAC8 (Homo sapiens, UniProt Q9BY41); assay: HDAC8 inhibition, recombinant enzyme cell-free assay; conditions: read-out: IC50 for Class I HDAC enzymes: HDAC8; Table 1
T1 sequence (Q9BY41 1-377): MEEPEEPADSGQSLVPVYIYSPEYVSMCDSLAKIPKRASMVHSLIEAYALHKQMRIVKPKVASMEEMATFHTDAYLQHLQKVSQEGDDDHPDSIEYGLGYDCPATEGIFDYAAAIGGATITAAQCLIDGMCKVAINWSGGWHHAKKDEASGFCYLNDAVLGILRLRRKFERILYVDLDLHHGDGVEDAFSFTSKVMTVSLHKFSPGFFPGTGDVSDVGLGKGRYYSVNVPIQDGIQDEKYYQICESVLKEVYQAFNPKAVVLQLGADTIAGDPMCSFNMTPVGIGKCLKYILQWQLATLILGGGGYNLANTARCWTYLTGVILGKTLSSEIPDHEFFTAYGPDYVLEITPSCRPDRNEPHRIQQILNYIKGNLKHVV

HDAC2 = HDAC2 (Homo sapiens, UniProt Q92769); assay: HDAC2 inhibition, Fluor-de-Lys fluorescence assay with purified enzyme
HDAC5 = HDAC5 (Homo sapiens, UniProt Q9UQL6); assay: HDAC5 inhibition; conditions: read-out: IC50 for Class II HDAC enzymes: HDAC5; Table 1
[3] = system: HD-related gene expression in striatum, R6/2 transgenic mice; assay: Real-time PCR of HD-related genes in striatum of R6/2 transgenic mice
IMR90 cells = type: cell-based, human; conditions: read-out: Proliferation inhibition IMR90, IC50; 72h
HDAC7 = target: T2, HDAC7 (Homo sapiens, UniProt Q8WUI4); assay: HDAC7 inhibition; conditions: read-out: IC50 for Class II HDAC enzymes: HDAC7; Table 1
T2 sequence (Q8WUI4 1-952): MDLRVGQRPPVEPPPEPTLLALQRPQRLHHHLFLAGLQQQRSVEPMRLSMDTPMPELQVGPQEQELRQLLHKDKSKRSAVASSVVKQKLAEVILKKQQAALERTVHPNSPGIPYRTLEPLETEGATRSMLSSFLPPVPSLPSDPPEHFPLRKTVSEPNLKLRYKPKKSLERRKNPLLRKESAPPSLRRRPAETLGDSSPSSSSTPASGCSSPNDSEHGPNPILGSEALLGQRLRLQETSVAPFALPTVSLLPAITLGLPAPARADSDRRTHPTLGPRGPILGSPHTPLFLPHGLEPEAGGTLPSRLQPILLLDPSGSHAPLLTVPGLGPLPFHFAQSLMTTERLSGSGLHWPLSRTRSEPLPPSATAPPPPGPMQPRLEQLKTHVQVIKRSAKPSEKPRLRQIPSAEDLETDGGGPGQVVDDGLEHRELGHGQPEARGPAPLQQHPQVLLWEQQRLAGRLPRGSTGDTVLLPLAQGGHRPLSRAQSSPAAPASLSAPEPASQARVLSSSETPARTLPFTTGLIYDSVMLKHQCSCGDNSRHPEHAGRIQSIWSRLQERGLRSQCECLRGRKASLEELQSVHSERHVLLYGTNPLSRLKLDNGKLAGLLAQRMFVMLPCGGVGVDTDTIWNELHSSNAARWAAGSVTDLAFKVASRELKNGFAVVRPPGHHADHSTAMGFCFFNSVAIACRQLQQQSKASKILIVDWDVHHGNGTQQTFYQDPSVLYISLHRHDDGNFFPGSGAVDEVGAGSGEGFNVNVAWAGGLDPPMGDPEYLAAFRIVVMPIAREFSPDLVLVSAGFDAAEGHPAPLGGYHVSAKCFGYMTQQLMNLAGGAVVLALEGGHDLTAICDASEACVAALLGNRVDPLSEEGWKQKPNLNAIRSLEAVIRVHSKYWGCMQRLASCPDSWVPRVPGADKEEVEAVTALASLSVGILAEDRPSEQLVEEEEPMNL

CYP2D6, sequence (P10635 whole entry): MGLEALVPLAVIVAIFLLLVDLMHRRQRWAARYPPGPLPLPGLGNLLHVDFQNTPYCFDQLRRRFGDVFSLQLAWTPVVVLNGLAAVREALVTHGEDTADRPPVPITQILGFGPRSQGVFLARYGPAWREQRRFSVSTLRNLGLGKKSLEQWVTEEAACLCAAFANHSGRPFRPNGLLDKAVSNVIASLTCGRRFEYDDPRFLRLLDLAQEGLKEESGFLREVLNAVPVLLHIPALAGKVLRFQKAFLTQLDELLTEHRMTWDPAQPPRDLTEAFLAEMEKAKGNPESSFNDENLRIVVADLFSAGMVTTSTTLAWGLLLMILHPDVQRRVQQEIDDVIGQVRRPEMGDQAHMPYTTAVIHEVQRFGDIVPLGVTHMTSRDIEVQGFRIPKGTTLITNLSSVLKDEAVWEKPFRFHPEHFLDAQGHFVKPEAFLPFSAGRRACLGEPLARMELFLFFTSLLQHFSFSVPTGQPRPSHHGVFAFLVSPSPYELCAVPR
CYP3A4, sequence (P08684 whole entry): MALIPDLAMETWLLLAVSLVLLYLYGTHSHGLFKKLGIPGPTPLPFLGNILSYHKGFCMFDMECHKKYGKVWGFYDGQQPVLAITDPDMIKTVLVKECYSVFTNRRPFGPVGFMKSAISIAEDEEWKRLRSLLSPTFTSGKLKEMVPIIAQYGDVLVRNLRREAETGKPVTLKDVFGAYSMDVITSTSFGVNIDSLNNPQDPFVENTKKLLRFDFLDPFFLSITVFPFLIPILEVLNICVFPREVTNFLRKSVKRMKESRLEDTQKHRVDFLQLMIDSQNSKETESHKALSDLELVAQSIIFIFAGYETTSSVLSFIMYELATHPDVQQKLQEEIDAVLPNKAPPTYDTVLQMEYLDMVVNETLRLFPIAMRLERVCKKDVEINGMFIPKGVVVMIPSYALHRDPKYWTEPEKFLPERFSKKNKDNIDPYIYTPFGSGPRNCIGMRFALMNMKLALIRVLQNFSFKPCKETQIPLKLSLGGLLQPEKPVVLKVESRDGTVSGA
HDAC2, sequence (Q92769 whole entry): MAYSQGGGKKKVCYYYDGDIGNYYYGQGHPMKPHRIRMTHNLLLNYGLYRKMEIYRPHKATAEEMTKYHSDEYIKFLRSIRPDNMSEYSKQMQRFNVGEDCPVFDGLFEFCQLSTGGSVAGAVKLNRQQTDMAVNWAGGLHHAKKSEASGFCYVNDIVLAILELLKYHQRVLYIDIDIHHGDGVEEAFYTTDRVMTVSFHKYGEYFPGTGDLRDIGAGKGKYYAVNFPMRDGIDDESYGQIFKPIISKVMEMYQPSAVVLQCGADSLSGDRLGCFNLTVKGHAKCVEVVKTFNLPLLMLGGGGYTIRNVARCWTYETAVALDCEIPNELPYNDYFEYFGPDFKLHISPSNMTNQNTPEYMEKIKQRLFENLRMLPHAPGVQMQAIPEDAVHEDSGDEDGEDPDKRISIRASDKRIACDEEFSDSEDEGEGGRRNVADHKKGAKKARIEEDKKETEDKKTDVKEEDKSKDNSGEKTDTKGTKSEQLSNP
HDAC5, sequence (Q9UQL6 whole entry, species assumed): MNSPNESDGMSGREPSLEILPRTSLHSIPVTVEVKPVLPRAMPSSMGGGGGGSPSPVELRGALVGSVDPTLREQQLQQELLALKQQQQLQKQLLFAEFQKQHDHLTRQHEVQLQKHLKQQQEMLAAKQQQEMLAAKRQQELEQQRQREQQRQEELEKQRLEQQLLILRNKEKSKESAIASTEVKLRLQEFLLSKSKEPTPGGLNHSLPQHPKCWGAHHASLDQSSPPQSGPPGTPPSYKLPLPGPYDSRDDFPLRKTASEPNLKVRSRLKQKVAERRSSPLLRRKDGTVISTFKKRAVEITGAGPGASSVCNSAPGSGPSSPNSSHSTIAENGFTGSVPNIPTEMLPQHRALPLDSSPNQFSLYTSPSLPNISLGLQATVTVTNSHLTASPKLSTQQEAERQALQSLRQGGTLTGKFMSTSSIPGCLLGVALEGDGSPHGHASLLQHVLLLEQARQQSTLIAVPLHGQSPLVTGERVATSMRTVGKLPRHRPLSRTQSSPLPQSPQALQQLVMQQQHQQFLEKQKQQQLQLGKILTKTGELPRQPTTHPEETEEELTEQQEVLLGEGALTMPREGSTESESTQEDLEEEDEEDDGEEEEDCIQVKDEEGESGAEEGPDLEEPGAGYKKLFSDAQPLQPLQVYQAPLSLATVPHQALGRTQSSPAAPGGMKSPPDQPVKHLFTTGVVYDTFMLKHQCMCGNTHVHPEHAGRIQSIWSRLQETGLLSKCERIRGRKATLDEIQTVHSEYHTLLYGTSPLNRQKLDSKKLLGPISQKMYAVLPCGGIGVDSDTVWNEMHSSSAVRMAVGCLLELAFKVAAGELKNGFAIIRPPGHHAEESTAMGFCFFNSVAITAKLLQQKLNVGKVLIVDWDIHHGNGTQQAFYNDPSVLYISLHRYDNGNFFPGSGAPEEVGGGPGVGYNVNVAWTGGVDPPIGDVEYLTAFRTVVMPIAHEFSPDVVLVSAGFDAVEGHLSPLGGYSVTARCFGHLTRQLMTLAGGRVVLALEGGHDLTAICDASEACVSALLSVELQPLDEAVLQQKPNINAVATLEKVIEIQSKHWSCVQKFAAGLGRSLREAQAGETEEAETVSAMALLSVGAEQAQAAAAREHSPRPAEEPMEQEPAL
HDAC4, sequence (P56524 whole entry, species assumed): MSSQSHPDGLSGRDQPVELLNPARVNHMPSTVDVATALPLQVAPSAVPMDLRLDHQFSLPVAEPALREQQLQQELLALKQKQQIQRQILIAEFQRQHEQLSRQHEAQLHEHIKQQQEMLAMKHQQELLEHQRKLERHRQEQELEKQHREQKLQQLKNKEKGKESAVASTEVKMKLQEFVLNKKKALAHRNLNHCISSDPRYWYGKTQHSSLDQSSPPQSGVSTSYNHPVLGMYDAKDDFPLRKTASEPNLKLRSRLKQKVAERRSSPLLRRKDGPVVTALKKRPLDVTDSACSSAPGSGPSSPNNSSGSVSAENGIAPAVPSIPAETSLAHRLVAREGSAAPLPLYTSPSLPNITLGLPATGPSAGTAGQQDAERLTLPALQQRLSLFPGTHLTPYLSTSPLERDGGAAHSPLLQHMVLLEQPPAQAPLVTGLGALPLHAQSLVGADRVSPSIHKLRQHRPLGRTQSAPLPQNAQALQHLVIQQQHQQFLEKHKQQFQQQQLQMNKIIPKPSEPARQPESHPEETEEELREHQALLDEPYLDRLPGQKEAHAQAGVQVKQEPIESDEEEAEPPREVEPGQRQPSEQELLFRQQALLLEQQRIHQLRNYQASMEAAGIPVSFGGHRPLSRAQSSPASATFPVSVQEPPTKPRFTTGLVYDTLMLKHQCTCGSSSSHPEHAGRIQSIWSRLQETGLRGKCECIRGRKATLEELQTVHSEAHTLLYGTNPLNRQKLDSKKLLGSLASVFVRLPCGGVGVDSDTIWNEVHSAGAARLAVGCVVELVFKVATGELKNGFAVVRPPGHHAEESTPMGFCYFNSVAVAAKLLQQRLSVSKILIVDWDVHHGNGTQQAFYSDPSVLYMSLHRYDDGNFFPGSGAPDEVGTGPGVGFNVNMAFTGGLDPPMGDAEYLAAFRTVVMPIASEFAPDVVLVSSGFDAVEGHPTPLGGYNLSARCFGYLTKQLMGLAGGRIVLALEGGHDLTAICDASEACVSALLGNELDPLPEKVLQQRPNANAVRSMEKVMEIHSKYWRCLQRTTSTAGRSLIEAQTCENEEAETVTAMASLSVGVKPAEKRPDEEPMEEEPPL

SMILES | pIC50 (CYP2D6) | improvement of the metabolic deficit of STHdhQ111 cells, in words (STHdhQ111 striatal cells) | reversal of gene expression deficits (Vdr, Dhrs4), in words [1] | activity against the class II HDACs, HDAC 4, 5 and 7 [2] | pEC50 (Hct116 cells; read-out: EC50 for inhibition of proliferation of Hct116 cells) | pIC50 (Hct116 cells) | pIC50 (CYP3A4) | pIC50 (HDAC4) | pIC50 (HDAC8) | pIC50 (HDAC2; read-out: IC50 for Class I HDAC enzymes: HDAC2, Table 1) | pIC50 (HDAC5) | reversal of expression of genes relevant to HD, in words ([3]; 150 mg/kg s.c. three days, striatum) | genes whose expression deficits were corrected, of 13 tested ([3]; qRT-PCR) | pIC50 (IMR90 cells) | pIC50 (HDAC7) | pIC50 (HDAC2; read-out: HDAC2 IC50, Table 2)
Cc1ccc(NC(=O)CCCCCC(=O)Nc2ccccc2N)cc1 [4b] | < 5.00 | significantly improved the metabolic deficit | effective at reversing gene expression deficits | essentially no activity | 5.00 | 5.00 | < 5.00 |  |  |  |  |  |  |  |  | 
Cc1ccc(C(=O)NCCCCCC(=O)Nc2ccc(F)cc2N)cc1 [compound 136] | < 5.00 | significantly improved the metabolic deficit |  |  |  | 4.40 |  | < 3.74 | 4.88 | 5.52 | < 3.74 | most effective | eight of the 13 genes tested | < 4.30 | < 3.74 | 
Nc1ccc(-c2cccs2)cc1NC(=O)CCCCCCNC(=O)c1cccnc1 [compound 233] | < 5.00 |  |  |  |  |  | 6.96 |  |  |  |  |  |  |  |  | 7.15
